In patent publication US10703733B2, “MCL-1 inhibitors” (Gilead Sciences, Inc., priority 2018, dated 2020):
Where two headings read alike, the source gives them in different places.

What was measured:
SKBR3 cells = experiment: SKBR3 Cell Viability Assay (CellTiter Glo); assay type: cell-based; conditions: CellTiter Glo luminescence, read-out: MCL-1 CV SKBR3 EC50
Description: SKBR3 Cell Viability Assay Materials
SKBR3 Cells (ATCC HTB-30) were obtained from ATCC (Manassas, Va.) and cultured in McCoy 5A's medium (ATCC 30-2007)+10% fetal bovine serum (SH30071.03, HyClone, Pittsburgh, Pa.) plus 1× Penicillin-Streptomycin L-glutamine (Corning 30-009-C1, Corning, N.Y.)).
The cell viability assay was conducted in a 384-well tissue culture plate (Grenier 781086, Monroe, N.C.) in a total volume of 70 μL. Test compounds were prepared in 1,000×, serially diluted, and pre-spotted into 384-well tissue culture plate by Echo 555 Liquid Handler (Labcyte Inc., San Jose, Calif.). Seventy μl of 6,000 SKBR3 cells were dispensed into each well of the plate and incubated at 37° C. with 5% CO2 for 72 hours. At the end of incubation, 2× CellTiter Glo (CTG) reagents (1 part buffer with 2 parts substrate) (Promega, Madison, Wis.) were prepared, and the plate and the reagent were equilibrated to room temperature for 30 minutes. CTG reagent was added to each plate by Biomek FX at 20 μL/well with 5 times pipetting and mixing to induce cell lysis. Luminescence was read by Envision multimode reader (PerkinElmer). […] Percent inhibition was calculated as followed: % Inhibition=100%*(Well−Neg)/(Pos−Neg) Neg, negative control, DMSO Pos, positive control, 10 μM Puromycin

[1] = molecular target: MCL-1/Bim interaction (recombinant human MCL-1 protein, residues 171-327; biotinylated human Bim peptide, residues 51-76) (Homo sapiens (Human), UniProt Q07820); experiment: MCL-1/Bim Binding AlphaLISA Assay; conditions: 0.0625 nM 6xHis-Mcl-1 (171-327), 0.0625 nM biotinylated-Bim peptide
Description: MCL-1/Bim Binding AlphaLISA Assay.
Inhibition of the MCL-1 and Bim interaction was measured in the following AlphaLISA assay.
Recombinant human MCL-1 protein (C-terminal 6×His Tagged Mcl-1 containing residues 171-327) was generated at Gilead Sciences, Inc. (Foster City, Calif.). A biotinylated peptide derived from human Bim (residues 51-76) was purchased from CPC Scientific (Sunnyvale, Calif.). (CPC 834113). AlphaLISA anti-6His-acceptor beads (AL128R), AlphaScreen Streptavidin donor beads (6760002B), and Proxiplate-384 Plus (6008289) were purchased from PerkinElmer.
The AlphaLISA assay was performed in a 384-well Proxiplate in a total volume of […]. The reaction mixture contained 0.0625 nM 6×His-Mcl-1 (171-327), 0.0625 nM biotinylated-Bim peptide, 10 μg/mL AlphaLISA anti-6×His-AlphaLISA acceptor beads, […] AlphaScreen streptavidin donor beads, and serially diluted test compounds in the binding buffer (20 mM Hepes, pH 7.5 (Teknova H1035); 150 mM NaCl (Promega V4221); 0.002% Brij 35 (Thermo Scientific 20150); 1 mM Dithiothreitol (DTT) Solution (Affymetrix 70726); 0.01% BSA (BioLabs B9000S)). 1,000×test compounds were pre-spotted onto 384-well Proxiplate (Labcyte Echo) by Echo 555 Liquid Handler (Labcyte Inc., San Jose, Calif.) followed by incubation of 5 μl Mcl-1(171-327) for 1 hour. Then 5 μL Bim (51-76) was added and incubated for 2 hours. Five μL AlphaLISA anti-6His-AlphaLISA acceptor beads were then added for 1 hour followed by addition of 5 μL AlphaScreen streptavidin donor beads for 1 hour. The reaction plates were then read on an Envision multimode reader (PerkinElmer) using AlphaScreen settings. […] Percent inhibition was calculated as shown below: % Inhibition=100%*(Well−Neg)/(Pos−Neg) Neg: negative control, DMSO Pos: positive control, no Mcl-1 protein, no biotinylated-Bim peptide

Chain of MCL-1/Bim interaction (recombinant human MCL-1 protein, residues 171-327; biotinylated human Bim peptide, residues 51-76) (Q07820 171-327): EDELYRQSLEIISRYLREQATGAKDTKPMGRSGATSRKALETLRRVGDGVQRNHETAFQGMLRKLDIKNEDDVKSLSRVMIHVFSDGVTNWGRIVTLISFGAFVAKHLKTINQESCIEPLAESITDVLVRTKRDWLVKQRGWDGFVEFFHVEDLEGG

EC50 (SKBR3 cells; Homo sapiens, SK-BR-3, 72 h)	IC50 [1]	EC50 (SKBR3 cells; 72 hours)	Compound
55.9 nM	0.185 nM	–	COC[C@H]1Cn2cc(C(=O)N[S@@]3(=O)=NC(=O)c4ccc5c(c4)N(C[C@@H]4CC[C@H]4[C@@H](OC)/C=C/C[C@H](C)C3)C[C@@]3(CCCc4cc(Cl)ccc43)CO5)cc2CO1 [Example 214]
37.2 nM	0.043 nM	–	CO[C@H]1/C=C/C[C@H](C)C[S@@](=O)(NC(=O)c2cnn(C)c2)=NC(=O)c2ccc3c(c2)N(C[C@@H]2CC[C@H]21)C[C@@]1(CCCc2cc(Cl)ccc21)CO3 [Example 148]
43.4 nM	0.071 nM	–	COC[C@H]1C[C@@H](NC(=O)N[S@@]2(=O)=NC(=O)c3ccc4c(c3)N(C[C@@H]3CC[C@H]3[C@@H](OC)/C=C/C[C@H](C)C2)C[C@@]2(CCCc3cc(Cl)ccc32)CO4)C1 [Example 210]
33.7 nM	0.026 nM	–	CO[C@H]1/C=C/C[C@H](C)C[S@@](=O)(NC(=O)N2CC(N3CCOCC3)C2)=NC(=O)c2ccc3c(c2)N(C[C@@H]2CC[C@H]21)C[C@@]1(CCCc2cc(Cl)ccc21)CO3 [Example 349]
81 nM	0.077 nM	–	COc1ncc(C(=O)N[S@@]2(=O)=NC(=O)c3ccc4c(c3)N(C[C@@H]3CC[C@H]3[C@@H](OC)/C=C/C[C@H](C)C2)C[C@@]2(CCCc3cc(Cl)ccc32)CO4)cn1 [Example 273]
171 nM	0.078 nM	–	CO[C@H]1/C=C/C[C@H](C)C[S@@](=O)(NC(=O)C2CC2c2cnn(C)c2)=NC(=O)c2ccc3c(c2)N(C[C@@H]2CC[C@H]21)C[C@@]1(CCCc2cc(Cl)ccc21)CO3 (some centres unmarked) [Example 425]
33.4 nM	0.062 nM	–	COc1nn(C)cc1C(=O)N[S@@]1(=O)=NC(=O)c2ccc3c(c2)N(C[C@@H]2CC[C@H]2[C@@H](OC)/C=C/[C@H](OC(C)=O)[C@H](C)C1)C[C@@]1(CCCc2cc(Cl)ccc21)CO3 [Example 393]
59.7 nM	0.039 nM	–	COc1nn(C)cc1C(=O)N[S@@]1(=O)=NC(=O)c2ccc3c(c2)N(C[C@@H]2CC[C@H]2[C@@H](OC)CC[C@H](OC)[C@H](C)C1)C[C@@]1(CCCc2cc(Cl)ccc21)CO3 [Example 299]
39.6 nM	0.037 nM	–	COCCOC1CN(C(=O)N[S@@]2(=O)=NC(=O)c3ccc4c(c3)N(C[C@@H]3CC[C@H]3[C@@H](OC)/C=C/C[C@H](C)C2)C[C@@]2(CCCc3cc(Cl)ccc32)CO4)C1 [Example 251]
36.9 nM	0.039 nM	–	CO[C@H]1/C=C/C[C@H](C)C[S@@](=O)(NC(=O)N2CC(OC(F)F)C2)=NC(=O)c2ccc3c(c2)N(C[C@@H]2CC[C@H]21)C[C@@]1(CCCc2cc(Cl)ccc21)CO3 [Example 354]
243 nM	0.052 nM	–	COC[C@@H]1CN(C(=O)N[S@@]2(=O)=NC(=O)c3ccc4c(c3)N(C[C@@H]3CC[C@H]3[C@@H](OC)/C=C/C[C@H](C)C2)C[C@@]2(CCCc3cc(Cl)ccc32)CO4)CCO1 [Example 232]
84 nM	0.074 nM	–	CCC1CN(C(=O)N[S@@]2(=O)=NC(=O)c3ccc4c(c3)N(C[C@@H]3CC[C@H]3[C@@H](OC)/C=C/C[C@H](C)C2)C[C@@]2(CCCc3cc(Cl)ccc32)CO4)C1 [Example 242]
80.1 nM	0.044 nM	–	CO[C@H]1/C=C/C[C@H](C)C[S@@](=O)(NC(=O)N[C@@H]2CC[C@@H](O)C2)=NC(=O)c2ccc3c(c2)N(C[C@@H]2CC[C@H]21)C[C@@]1(CCCc2cc(Cl)ccc21)CO3 [Example 222]
147 nM	0.037 nM	–	CO[C@H]1/C=C/C[C@H](C)C[S@@](=O)(NC(=O)c2cc3n(n2)CCOC3)=NC(=O)c2ccc3c(c2)N(C[C@@H]2CC[C@H]21)C[C@@]1(CCCc2cc(Cl)ccc21)CO3 [Example 424]
4560 nM	0.5 nM	–	CO[C@H]1/C=C/CCC[S@@](=O)(NC(=O)CCc2ccc(Cl)cc2)=NC(=O)c2ccc3c(c2)N(C[C@@H]2CC[C@H]21)C[C@@]1(CCCc2cc(Cl)ccc21)CO3 [Example 90]
2410 nM	1.6 nM	–	CO[C@H]1/C=C/CCC[S@@](=O)(NC(=O)CCc2nccn2C)=NC(=O)c2ccc3c(c2)N(C[C@@H]2CC[C@H]21)C[C@@]1(CCCc2cc(Cl)ccc21)CO3 [Example 43]
–	0.106 nM	34 nM	COc1nn(C)cc1C(=O)N[S@@]1(=O)=NC(=O)c2ccc3c(c2)N(C[C@@H]2CC[C@H]2[C@@H](OC)/C=C/[C@H](S(=O)(=O)c2ccc(C)cc2)[C@H](C)C1)C[C@@]1(CCCc2cc(Cl)ccc21)CO3 [Example 377]
72.2 nM	0.049 nM	–	CO[C@H]1/C=C/C[C@H](C)C[S@@](=O)(NC(=O)N[C@H]2C[C@@H]2CN2CCOCC2)=NC(=O)c2ccc3c(c2)N(C[C@@H]2CC[C@H]21)C[C@@]1(CCCc2cc(Cl)ccc21)CO3 [Example 328]
62.2 nM	0.073 nM	–	CO[C@H]1/C=C/C[C@H](C)C[S@@](=O)(NC(=O)N2CC(OC3CC3)C2)=NC(=O)c2ccc3c(c2)N(C[C@@H]2CC[C@H]21)C[C@@]1(CCCc2cc(Cl)ccc21)CO3 [Example 263]
–	–	356 nM	CCNC(=O)N[S@@]1(=O)=NC(=O)c2ccc3c(c2)N(C[C@@H]2CC[C@H]2[C@@H](OC)CCCCC1)C[C@@]1(CCCc2cc(Cl)ccc21)CO3 [Example 14]
–	–	3270 nM	CCNC(=O)N[S@@]1(=O)=NC(=O)c2ccc3c(c2)N(C[C@@H]2CC[C@H]2[C@@H](OC)CCCCC1)C[C@@]1(CCCc2cc(Cl)ccc21)CO3 [Example 13]
233 nM	–	–	CO[C@H]1/C=C/C[C@H](C)C[S@@](=O)(NC(=O)C2CC(OC(F)F)C2)=NC(=O)c2ccc3c(c2)N(C[C@@H]2CC[C@H]21)C[C@@]1(CCCc2cc(Cl)ccc21)CO3 (some centres unmarked) [Example 431]
–	–	9710 nM	CCC(=O)N[S@]1(=O)=NC(=O)c2ccc3c(c2)N(C[C@@H]2CC[C@H]2[C@@H](O)/C=C/CCC1)C[C@@]1(CCCc2cc(Cl)ccc21)CO3 [Example 63]
–	–	2430 nM	CCC(=O)N[S@@]1(=O)=NC(=O)c2ccc3c(c2)N(C[C@@H]2CC[C@H]2[C@@H](O)/C=C/CCC1)C[C@@]1(CCCc2cc(Cl)ccc21)CO3 [Example 62]
–	–	10000 nM	CCC(=O)N[S@@]1(=O)=NC(=O)c2ccc3c(c2)N(C[C@@H]2CC[C@H]2[C@@H](OC)CCCCC1)C[C@@]1(CCCc2ccccc21)CO3 [Example 16]
–	–	7780 nM	CCOC(=O)N[S@]1(=O)=NC(=O)c2ccc3c(c2)N(C[C@@H]2CC[C@H]2[C@@H](OC)/C=C/CCC1)C[C@@]1(CCCc2cc(Cl)ccc21)CO3 [Example 9]
–	–	2190 nM	CO[C@H]1/C=C/C[C@H](C)[C@@H](C)S(=O)(=O)NC(=O)c2ccc3c(c2)N(C[C@@H]2CC[C@H]21)C[C@@]1(CCCc2cc(Cl)ccc21)CO3 [Comparative Example 1, reference compound]
–	–	7800 nM	CCC(=O)N[S@]1(=O)=NC(=O)c2ccc3c(c2)N(C[C@@H]2CC[C@H]2[C@@H](OC)/C=C/CCCC1)C[C@@]1(CCCc2cc(Cl)ccc21)CO3 [Example 69]
5800 nM	–	–	CO[C@H]1/C=C/C[C@H](C)[C@@H](C)[S@@](=O)(NC(=O)C(F)(F)F)=NC(=O)c2ccc3c(c2)N(C[C@@H]2CC[C@H]21)C[C@@]1(CCCc2cc(Cl)ccc21)CO3 [Example 370]

Compound	EC50 (SKBR3 cells; Homo sapiens, SK-BR-3, 72 h)	IC50 [1]	EC50 (SKBR3 cells; 72 hours)
COC1Cc2cc(C(=O)N[S@@]3(=O)=NC(=O)c4ccc5c(c4)N(C[C@@H]4CC[C@H]4[C@@H](OC)/C=C/C[C@H](C)C3)C[C@@]3(CCCc4cc(Cl)ccc43)CO5)cn2C1 (some centres unmarked) [Example 205]	–	–	58.9 nM
CO[C@H]1/C=C/C[C@H](C)[C@@H](C)[S@@](=O)(NC(=O)c2cnn(C3COC3)c2)=NC(=O)c2ccc3c(c2)N(C[C@@H]2CC[C@H]21)C[C@@]1(CCCc2cc(Cl)ccc21)CO3 [Example 152]	–	–	55.7 nM
